Measured values reported in ChEMBL document CHEMBL1201862, “PubChem BioAssay data set” (2004).
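Growth conditions: 96-well plates. Treatment: test compound, 48 hours, 5 concentrations. Analysis: linear interpolation between bracketing concentrations; unreached endpoints set to highest concentration. At the GI50, growth is halved.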 The source made the active and inactive calls. Rule as the data show it: active = GI50 up to about 1.1 µM and inactive = higher.

Columns and labels:
Experiment in all cases: growth of human tumour cells (NCI), 48 h
SK-MEL-5 = test system: SK-MEL-5
NCI-H460 = test system: NCI-H460
SK-OV-3 = test system: SK-OV-3
CCRF-CEM = test system: CCRF-CEM
KM12 = test system: KM12
HOP-62 = test system: HOP-62
LXFL 529 = test system: LXFL 529
OVCAR-8 = test system: OVCAR-8
SNB-19 = test system: SNB-19
SK-MEL-28 = test system: SK-MEL-28
SNB-78 = test system: SNB-78
U-251 = test system: U-251
UO-31 = test system: UO-31
OVCAR-5 = test system: OVCAR-5
UACC-62 = test system: UACC-62
NCI-H522 = test system: NCI-H522
OVCAR-4 = test system: OVCAR-4
HL-60 = test system: HL-60
SN12C = test system: SN12C
K562 = test system: K562
DMS-273 = test system: DMS-273
LOX IMVI = test system: LOX IMVI
A549 = test system: A549
SR = test system: SR
ACHN = test system: ACHN
SF-268 = test system: SF-268
NCI-H226 = test system: NCI-H226
SW-620 = test system: SW-620
UACC-257 = test system: UACC-257
CAKI-1 = test system: CAKI-1
EKVX = test system: EKVX
786-0 = test system: 786-0
SK-MEL-2 = test system: SK-MEL-2
M19-MEL = test system: M19-MEL
HOP-92 = test system: HOP-92
RXF 393 = test system: RXF 393
DMS-114 = test system: DMS-114
Malme-3M = test system: Malme-3M
SF-539 = test system: SF-539
DLD-1 = test system: DLD-1
HT-29 = test system: HT-29
TK-10 = test system: TK-10
A498 = test system: A498
KM-20L2 = test system: KM-20L2
SF-295 = test system: SF-295
COLO 205 = test system: COLO 205
NCI-H23 = test system: NCI-H23
IGROV-1 = test system: IGROV-1
MOLT-4 = test system: MOLT-4
RPMI-8226 = test system: RPMI-8226
OVCAR-3 = test system: OVCAR-3
HCC 2998 = test system: HCC 2998
HCT-116 = test system: HCT-116
XF498 = test system: XF498
HCT-15 = test system: HCT-15
SNB-75 = test system: SNB-75
M14 = test system: M14
HOP-18 = test system: HOP-18

What does the source list for O=c1cc2n(c(=O)[nH]1)C1OC(C(O)C1O)[C@H]2CCO (some centres not stated)?
GI50 (SK-MEL-5): > 100 µM (inactive); GI50 (NCI-H460): > 100 µM (inactive); GI50 (SK-OV-3): > 100 µM (inactive); GI50 (CCRF-CEM): > 100 µM (inactive); GI50 (KM12): > 100 µM (inactive); GI50 (HOP-62): > 100 µM (inactive); GI50 (LXFL 529): > 100 µM (inactive); GI50 (OVCAR-8): > 100 µM (inactive); GI50 (SNB-19): > 100 µM (inactive); GI50 (SK-MEL-28): > 100 µM (inactive); GI50 (SNB-78): > 100 µM (inactive); GI50 (U-251): > 100 µM (inactive); GI50 (UO-31): > 100 µM (inactive); GI50 (OVCAR-5): > 100 µM (inactive); GI50 (UACC-62): > 100 µM (inactive); GI50 (NCI-H522): > 100 µM (inactive); GI50 (OVCAR-4): > 100 µM (inactive); GI50 (HL-60): > 100 µM (inactive); GI50 (SN12C): > 100 µM (inactive); GI50 (K562): > 100 µM (inactive); GI50 (DMS-273): > 100 µM (inactive); GI50 (LOX IMVI): > 100 µM (inactive); GI50 (A549): > 100 µM (inactive); GI50 (SR): > 100 µM (inactive); GI50 (ACHN): > 100 µM (inactive); GI50 (SF-268): > 100 µM (inactive); GI50 (NCI-H226): > 100 µM (inactive); GI50 (SW-620): > 100 µM (inactive); GI50 (UACC-257): > 100 µM (inactive); GI50 (CAKI-1): > 100 µM (inactive); GI50 (EKVX): > 100 µM (inactive); GI50 (786-0): > 100 µM (inactive); GI50 (SK-MEL-2): > 100 µM (inactive); GI50 (M19-MEL): > 100 µM (inactive); GI50 (HOP-92): > 100 µM (inactive); GI50 (RXF 393): > 100 µM (inactive); GI50 (DMS-114): > 100 µM (inactive); GI50 (Malme-3M): > 100 µM (inactive); GI50 (SF-539): > 100 µM (inactive); GI50 (DLD-1): > 100 µM (inactive); GI50 (HT-29): > 100 µM (inactive); GI50 (TK-10): > 100 µM (inactive); GI50 (A498): > 100 µM (inactive); GI50 (KM-20L2): > 100 µM (inactive); GI50 (SF-295): > 100 µM (inactive); GI50 (COLO 205): > 100 µM (inactive); GI50 (NCI-H23): > 100 µM (inactive); GI50 (IGROV-1): > 100 µM (inactive); GI50 (MOLT-4): > 100 µM (inactive)

Which results are given for CC(=O)Nc1ccc(C(=O)N2N=C(C)/C(=C/c3ccc(O)cc3)C2=O)cc1?
GI50 (SK-MEL-5): > 100 µM (inactive); GI50 (NCI-H460): > 100 µM (inactive); GI50 (CCRF-CEM): > 100 µM (inactive); GI50 (KM12): > 100 µM (inactive); GI50 (RPMI-8226): > 100 µM (inactive); GI50 (HOP-62): > 100 µM (inactive); GI50 (OVCAR-8): > 100 µM (inactive); GI50 (SNB-19): > 100 µM (inactive); GI50 (SK-MEL-28): > 100 µM (inactive); GI50 (SNB-78): > 100 µM (inactive); GI50 (U-251): > 100 µM (inactive); GI50 (UO-31): > 100 µM (inactive); GI50 (OVCAR-5): > 100 µM (inactive); GI50 (NCI-H522): > 100 µM (inactive); GI50 (OVCAR-3): > 100 µM (inactive); GI50 (OVCAR-4): > 100 µM (inactive); GI50 (HL-60): > 100 µM (inactive); GI50 (SN12C): > 100 µM (inactive); GI50 (HCC 2998): > 100 µM (inactive); GI50 (K562): > 100 µM (inactive); GI50 (DMS-273): > 100 µM (inactive); GI50 (LOX IMVI): > 100 µM (inactive); GI50 (A549): > 100 µM (inactive); GI50 (SR): > 100 µM (inactive); GI50 (ACHN): > 100 µM (inactive); GI50 (SF-268): > 100 µM (inactive); GI50 (NCI-H226): > 100 µM (inactive); GI50 (SW-620): > 100 µM (inactive); GI50 (UACC-257): > 100 µM (inactive); GI50 (CAKI-1): > 100 µM (inactive); GI50 (EKVX): > 100 µM (inactive); GI50 (786-0): > 100 µM (inactive); GI50 (SK-MEL-2): > 100 µM (inactive); GI50 (M19-MEL): > 100 µM (inactive); GI50 (HCT-116): > 100 µM (inactive); GI50 (DMS-114): > 100 µM (inactive); GI50 (Malme-3M): > 100 µM (inactive); GI50 (SF-539): > 100 µM (inactive); GI50 (DLD-1): > 100 µM (inactive); GI50 (HT-29): > 100 µM (inactive); GI50 (TK-10): > 100 µM (inactive); GI50 (XF498): > 100 µM (inactive); GI50 (SF-295): > 100 µM (inactive); GI50 (HCT-15): > 100 µM; GI50 (COLO 205): > 100 µM (inactive); GI50 (NCI-H23): > 100 µM (inactive); GI50 (SNB-75): > 100 µM (inactive); GI50 (MOLT-4): > 100 µM (inactive)

What does the source list for N#Cc1c(-c2ccco2)cc(-c2ccc(NCc3nc4ccccc4[nH]3)cc2)nc1N?
GI50 (SK-MEL-5): 16 µM (inactive); GI50 (NCI-H460): 18.1 µM (inactive); GI50 (SK-OV-3): 50.5 µM (inactive); GI50 (CCRF-CEM): 27.4 µM (inactive); GI50 (KM12): 18.7 µM (inactive); GI50 (RPMI-8226): 19.2 µM (inactive); GI50 (HOP-62): 26.7 µM (inactive); GI50 (LXFL 529): 17.9 µM (inactive); GI50 (OVCAR-8): 20.4 µM (inactive); GI50 (SNB-19): 20.5 µM (inactive); GI50 (SK-MEL-28): 27.5 µM (inactive); GI50 (M14): 19.5 µM (inactive); GI50 (U-251): 25.9 µM (inactive); GI50 (UO-31): 16.6 µM (inactive); GI50 (OVCAR-5): 32.3 µM (inactive); GI50 (UACC-62): 16.6 µM (inactive); GI50 (NCI-H522): 18.8 µM (inactive); GI50 (OVCAR-3): 20.1 µM (inactive); GI50 (OVCAR-4): 22.8 µM (inactive); GI50 (HL-60): 20 µM (inactive); GI50 (SN12C): 22.5 µM (inactive); GI50 (HCC 2998): 21.8 µM (inactive); GI50 (K562): 24.3 µM (inactive); GI50 (DMS-273): 18 µM (inactive); GI50 (LOX IMVI): 18.7 µM (inactive); GI50 (A549): 29.8 µM (inactive); GI50 (ACHN): 26.5 µM (inactive); GI50 (SF-268): 30.1 µM (inactive); GI50 (SW-620): 35.3 µM (inactive); GI50 (CAKI-1): 33.8 µM (inactive); GI50 (HOP-18): 24.4 µM (inactive); GI50 (786-0): 28.6 µM (inactive); GI50 (SK-MEL-2): 20.3 µM (inactive); GI50 (M19-MEL): 25.1 µM (inactive); GI50 (HCT-116): 18.9 µM (inactive); GI50 (HOP-92): 21.4 µM (inactive); GI50 (RXF 393): 16 µM (inactive); GI50 (Malme-3M): 24.5 µM (inactive); GI50 (SF-539): 19.5 µM (inactive); GI50 (DLD-1): 28.8 µM (inactive); GI50 (HT-29): 32.6 µM (inactive); GI50 (TK-10): 26.4 µM (inactive); GI50 (A498): 25 µM (inactive); GI50 (SF-295): 19.5 µM (inactive); GI50 (HCT-15): 23.6 µM; GI50 (COLO 205): 21.6 µM (inactive); GI50 (NCI-H23): 20.2 µM (inactive); GI50 (IGROV-1): 23 µM (inactive); GI50 (SNB-75): 26.4 µM (inactive); GI50 (MOLT-4): 15.3 µM (inactive)
